From the supplement of paper PMC13380429
± gives the standard deviation of the averaged measurements.

How the values were obtained:
Conditions in all cases: 72 h
HepG2 [1] = test: drug sensitivity score (DSS) for viability; higher = more toxic; extreme values may be limits of the assay
Vero E6 [2] = test: as above
Caco-2 [3] = test: as above
U2OS [4] = test: as above
Calu-3 [5] = test: as above
HepG2 [6] = test: relative viability EC50 (midpoint between 100% and the lowest measured viability); higher = less toxic
Vero E6 [7] = test: as above
Caco-2 [8] = test: as above
U2OS [9] = test: as above
Calu-3 [10] = test: as above
HepG2 [11] = test: cell viability relative to DMSO; higher = less toxic
Vero E6 [12] = test: as above
Caco-2 [13] = test: as above
U2OS [14] = test: as above
Calu-3 [15] = test: as above

| SMILES | drug sensitivity score (HepG2 [1]) | drug sensitivity score (Vero E6 [2]) | drug sensitivity score (Caco-2 [3]) | drug sensitivity score (U2OS [4]) | drug sensitivity score (Calu-3 [5]) | relative viability EC50 (HepG2 [6]) | relative viability EC50 (Vero E6 [7]) | relative viability EC50 (Caco-2 [8]) | relative viability EC50 (U2OS [9]) | relative viability EC50 (Calu-3 [10]) | cell viability (HepG2 [11]; 1 nM) | cell viability (HepG2 [11]; 10 nM) | cell viability (HepG2 [11]; 100 nM) | cell viability (HepG2 [11]; 1000 nM) | cell viability (HepG2 [11]; 10000 nM) | cell viability (Vero E6 [12]; 1 nM) | cell viability (Vero E6 [12]; 10 nM) | cell viability (Vero E6 [12]; 100 nM) | cell viability (Vero E6 [12]; 1000 nM) | cell viability (Vero E6 [12]; 10000 nM) | cell viability (Caco-2 [13]; 1 nM) | cell viability (Caco-2 [13]; 10 nM) | cell viability (Caco-2 [13]; 100 nM) | cell viability (Caco-2 [13]; 1000 nM) | cell viability (Caco-2 [13]; 10000 nM) | cell viability (U2OS [14]; 1 nM) | cell viability (U2OS [14]; 10 nM) | cell viability (U2OS [14]; 100 nM) | cell viability (U2OS [14]; 1000 nM) | cell viability (U2OS [14]; 10000 nM) | cell viability (Calu-3 [15]; 1 nM) | cell viability (Calu-3 [15]; 10 nM) | cell viability (Calu-3 [15]; 100 nM) | cell viability (Calu-3 [15]; 1000 nM) | cell viability (Calu-3 [15]; 10000 nM) |
| --- | --- | --- | --- | --- | --- | --- | --- | --- | --- | --- | --- | --- | --- | --- | --- | --- | --- | --- | --- | --- | --- | --- | --- | --- | --- | --- | --- | --- | --- | --- | --- | --- | --- | --- | --- |
| CC(C)(C)NCC(O)c1ccc(O)c(CO)c1 (stereo not given) [albuterol] | 0.55 ± 0.78 | 0 | 0 | 0 | 0 | > 10 µM | > 10 µM | > 10 µM | > 10 µM | > 10 µM | 108 ± 2.9% | 96.1 ± 2.7% | 98.5 ± 15% | 100 ± 14% | 91.6 ± 11% | 106 ± 2.5% | 94.8 ± 5.2% | 99.5 ± 3% | 97.8 ± 0.42% | 101 ± 3.8% | 101 ± 2% | 101 ± 14% | 90.9 ± 2.3% | 96.3 ± 1.5% | 102 ± 7.1% | 101 ± 2.5% | 98.5 ± 4% | 97 ± 2.5% | 97.6 ± 3.7% | 96.2 ± 2.9% | 98.2 ± 3.3% | 97.2 ± 3.8% | 96.2 ± 6.6% | 103 ± 6% | 103 ± 9.1% |
| O=C1CCC(N2C(=O)c3ccccc3C2=O)C(=O)N1 (stereo not given) [thalidomide] | 0 | 0 | 0 | 0 | 0 | > 10 µM | > 10 µM | > 10 µM | > 10 µM | > 10 µM | 102% | 99.8% | 89.4% | 99.1% | 97.8% | 103% | 102% | 93.9% | 97.3% | 96.1% | 89.6% | 91.9% | 90.9% | 94.7% | 94.9% | 101% | 95.4% | 100% | 95% | 98.6% | 89.8% | 92.1% | 92.2% | 93.6% | 97.9% |
| COc1cc(Br)c(S(=O)(=O)Nc2ccc(C(F)(F)F)c(O[C@@H]3CCN(C)C3)c2)cc1OC | 0 | 0 | 0 | 0 | 0 | > 10 µM | > 10 µM | > 10 µM | > 10 µM | > 10 µM | 85.4% | 107% | 93.3% | 96.7% | 91.2% | 91.5% | 101% | 99% | 103% | 94.9% | 102% | 100% | 101% | 95.9% | 95.9% | 105% | 96.3% | 95% | 98.3% | 96.6% | 103% | 94.7% | 99.3% | 98.1% | 104% |
| CCOC(=O)c1ccc(O)cc1 [ethyl-paraben] | 0 | 0 | 0 | 0 | 0 | > 10 µM | > 10 µM | > 10 µM | > 10 µM | > 10 µM | 108% | 102% | 101% | 94.7% | 97.8% | 102% | 99.7% | 98.9% | 104% | 99.8% | 101% | 94.3% | 101% | 99.2% | 100% | 96.3% | 97% | 107% | 98.3% | 106% | 96.6% | 93% | 106% | 97.3% | 92% |
| O=C(O)[C@H](Cc1ccc(Nc2nccc3ccncc23)cc1)NC1=C(Br)C(=O)C12CCCCC2 [CT-7758] | 0 | 0 | 0 | 0 | 0 | > 10 µM | > 10 µM | > 10 µM | > 10 µM | > 10 µM | 99.3% | 95.4% | 105% | 101% | 101% | 97.6% | 104% | 93.3% | 98.2% | 93.4% | 97.5% | 100% | 88.9% | 105% | 102% | 101% | 104% | 96.6% | 98.6% | 96.5% | 108% | 105% | 95.3% | 89.6% | 104% |
| CCc1cc(C(N)=S)ccn1 [ethionamide] | 0 | 0 | 0 | 0 | 0 | > 10 µM | > 10 µM | > 10 µM | > 10 µM | > 10 µM | 100% | 90.6% | 97.9% | 102% | 102% | 96.7% | 101% | 101% | 91.5% | 99.7% | 95.7% | 92.7% | 96.5% | 92.6% | 102% | 97.8% | 94% | 97.1% | 94.7% | 96.3% | 90.8% | 92.2% | 98.7% | 93% | 95.7% |
| Cc1noc(NS(=O)(=O)c2cccc3c(N(C)C)cccc23)c1C | 0 | 0 | 0 | 0 | 0 | > 10 µM | > 10 µM | > 10 µM | > 10 µM | > 10 µM | 99.6% | 96% | 108% | 94.5% | 110% | 103% | 92.8% | 98.3% | 90.5% | 103% | 80.6% | 103% | 96.7% | 91.7% | 105% | 93.5% | 101% | 100% | 100% | 103% | 97.7% | 104% | 95.4% | 97.3% | 103% |
| OCC(CO)N[C@H]1C[C@](O)(CO)[C@@H](O)[C@H](O)[C@H]1O [voglibose] | 0 | 0 | 0 | 0 | 0 | > 10 µM | > 10 µM | > 10 µM | > 10 µM | > 10 µM | 98.2% | 108% | 102% | 100% | 111% | 97% | 95.1% | 94.3% | 93.8% | 104% | 94.4% | 102% | 93.7% | 98% | 106% | 103% | 100% | 100% | 98.2% | 97.5% | 97.8% | 106% | 98.4% | 101% | 108% |
| Cc1cccc(Nc2cc(Cl)nc(SCC(=O)O)n2)c1C [pirinixic-acid] | 0 | 0 | 0 | 0 | 0 | > 10 µM | > 10 µM | > 10 µM | > 10 µM | > 10 µM | 98.8% | 99.4% | 94.8% | 99.2% | 101% | 100% | 95.3% | 98.8% | 95.9% | 100% | 90% | 95.2% | 98.8% | 98.1% | 87.2% | 103% | 104% | 95.7% | 102% | 97.1% | 99.9% | 102% | 93.7% | 114% | 97.4% |
| COc1ccc2[nH]c([S+]([O-])Cc3ncc(C)c(OC)c3C)nc2c1 (stereo not given) [omeprazole-magnesium] | 0 | 0 | 0 | 0 | 0 | > 10 µM | > 10 µM | > 10 µM | > 10 µM | > 10 µM | 87.7% | 98.4% | 86.3% | 99.7% | 95.1% | 102% | 105% | 96.2% | 96.3% | 110% | 90.7% | 72.4% | 100% | 97.4% | 107% | 96.6% | 97.3% | 102% | 94.3% | 96% | 93.3% | 104% | 98.7% | 95.5% | 98.9% |
| C=C(C)CN1CC[C@]23c4c5ccc(O)c4O[C@H]2c2[nH]c4ccccc4c2C[C@@]3(O)C1C5 [SDM25N] | 0.4 | 0 | 0.1 | 0 | 0.2 | > 10 µM | > 10 µM | > 10 µM | > 10 µM | > 10 µM | 92.7% | 101% | 100% | 102% | 80.7% | 90.7% | 93.1% | 95.6% | 96.6% | 88.8% | 92.9% | 102% | 89.9% | 101% | 86.4% | 93.7% | 100% | 100% | 101% | 91.8% | 92.8% | 86.2% | 93.5% | 110% | 82.4% |
